Measured values as given in patent US20230250066A1, “HERBICIDAL CINNOLINE DERIVATIVES” (SYNGENTA CROP PROTECTION AG, priority 2020, published 2023).

Columns and labels:
Type in all cases: in vivo
[1] = tested on: Amaranthus retoflexus (AMARE); experiment: Pre-emergence herbicidal test; settings: 1000 g/ha, evaluated after 13 days
[2] = tested on: Setaria faberi (SETFA); experiment: Pre-emergence herbicidal test; settings: 1000 g/ha, evaluated after 13 days
[3] = tested on: Echinochloa crus-galli (ECHCG); experiment: Pre-emergence herbicidal test; settings: 1000 g/ha, evaluated after 13 days
[4] = tested on: Ipomoea hederacea (IPOHE); experiment: Pre-emergence herbicidal test; settings: 1000 g/ha, evaluated after 13 days
[5] = tested on: Abutilon theophrasti (ABUTH); experiment: Pre-emergence herbicidal test; settings: 1000 g/ha, evaluated after 13 days
[6] = tested on: Zea mays (ZEAMX); experiment: Pre-emergence herbicidal test; settings: 1000 g/ha, evaluated after 13 days
[7] = tested on: Abutilon theophrasti (ABUTH); experiment: Post-emergence herbicidal test; settings: 1000 g/ha unless otherwise stated, evaluated after 13 days
Outline: (§1)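 Spray-applied at 1000 g/ha unless stated, in the glasshouse. Damage rated 13 days later on a 0–5 scale.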

[8] = tested on: Amaranthus retoflexus (AMARE); experiment: Post-emergence herbicidal test; settings: 1000 g/ha unless otherwise stated, evaluated after 13 days
Outline: as §1

[9] = tested on: Echinochloa crus-galli (ECHCG); experiment: Post-emergence herbicidal test; settings: 1000 g/ha unless otherwise stated, evaluated after 13 days
Outline: as §1

[10] = tested on: Ipomoea hederacea (IPOHE); experiment: Post-emergence herbicidal test; settings: 1000 g/ha unless otherwise stated, evaluated after 13 days
Outline: as §1

[11] = tested on: Setaria faberi (SETFA); experiment: Post-emergence herbicidal test; settings: 1000 g/ha unless otherwise stated, evaluated after 13 days
Outline: as §1

[12] = tested on: Zea mays (ZEAMX); experiment: Post-emergence herbicidal test; settings: 1000 g/ha unless otherwise stated, evaluated after 13 days
Outline: as §1

Row | Compound | percentage damage caused to the plant, five-point scale, AMARE [1] | percentage damage caused to the plant, five-point scale, SETFA [2] | percentage damage caused to the plant, five-point scale, ECHCG [3] | percentage damage caused to the plant, five-point scale, IPOHE [4] | percentage damage caused to the plant, five-point scale, ABUTH [5] | percentage damage caused to the plant, five-point scale, ZEAMX [6] | percentage damage caused to the plant, ABUTH (five-point scale) [7] | percentage damage caused to the plant, AMARE (five-point scale) [8] | percentage damage caused to the plant, ECHCG (five-point scale) [9] | percentage damage caused to the plant, IPOHE (five-point scale) [10] | percentage damage caused to the plant, SETFA (five-point scale) [11] | percentage damage caused to the plant, ZEAMX (five-point scale) [12]
1 | CC(C)(C)COC(=O)c1nn(-c2ccc(OC(F)(F)F)cc2)c2cccc(S(C)(=O)=O)c2c1=O [Compound P68, 2,2-dimethylpropyl 5-methylsulfonyl-4-oxo-1-[4-(trifluoromethoxy)phenyl]cinnoline-3-carboxylate] | 0 (0=0%) | 4 (4=61-80%) | 4 (4=61-80%) | 0 (0=0%) | 0 (0=0%) | 0 (0=0%) | 0 (0=0%) | 0 (0=0%) | 3 (3=41-60%) | 0 (0=0%) | 3 (3=41-60%) | 1 (1=10-20%)
2 | CC(OC(=O)c1nn(-c2ccc(OC(F)(F)F)cc2)c2cccc(S(C)(=O)=O)c2c1=O)C1CC1 (stereo not drawn) [Compound P74, 1-cyclopropylethyl 5-methylsulfonyl-4-oxo-1-[4-(trifluoromethoxy)phenyl]cinnoline-3-carboxylate] | 0 (0=0%) | 5 (5=81-100%) | 4 (4=61-80%) | 0 (0=0%) | 0 (0=0%) | 0 (0=0%) | 1 (1=10-20%) | 1 (1=10-20%) | 4 (4=61-80%) | 0 (0=0%) | 4 (4=61-80%) | 1 (1=10-20%)
3 | C#CCCOC(=O)c1nn(-c2ccc(OC(F)(F)F)cc2)c2cccc(S(C)(=O)=O)c2c1=O [Compound P71, but-3-ynyl 5-methylsulfonyl-4-oxo-1-[4-(trifluoromethoxy)phenyl]cinnoline-3-carboxylate] | 0 (0=0%) | 5 (5=81-100%) | 4 (4=61-80%) | 0 (0=0%) | 0 (0=0%) | 0 (0=0%) | 0 (0=0%) | 0 (0=0%) | 3 (3=41-60%) | 1 (1=10-20%) | 3 (3=41-60%) | 1 (1=10-20%)
4 | Cc1ccc2c(c1S(C)(=O)=O)c(=O)c(C(=O)O)nn2-c1ccc(OC(F)(F)F)cc1 [Compound P6, 6-methyl-5-methylsulfonyl-4-oxo-1-[4-(trifluoromethoxy)phenyl]cinnoline-3-carboxylic acid] | 1 (1=10-20%) | 4 (4=61-80%) | 3 (3=41-60%) | 1 (1=10-20%) | 2 (2=21-40%) | 1 (1=10-20%) | 1 (1=10-20%) | 2 (2=21-40%) | 4 (4=61-80%) | 1 (1=10-20%) | 3 (3=41-60%) | 1 (1=10-20%)
5 | CCOC(=O)c1nn(-c2ccc(OC(F)(F)F)cc2)c2cccc([S+]([O-])CC(F)(F)F)c2c1=O (stereo not drawn) [Compound P38, ethyl 4-oxo-5-(2,2,2-trifluoroethylsulfinyl)-1-[4-(trifluoromethoxy)phenyl]cinnoline-3-carboxylate] | 0 (0=0%) | 0 (0=0%) | 0 (0=0%) | 0 (0=0%) | 0 (0=0%) | 0 (0=0%) | 1 (1=10-20%) | 1 (1=10-20%) | 0 (0=0%) | 0 (0=0%) | 1 (1=10-20%) | 1 (1=10-20%)
6 | CC(C)CCOC(=O)c1nn(-c2ccc(OC(F)(F)F)cc2)c2cccc(S(C)(=O)=O)c2c1=O [Compound P88, isopentyl 5-methylsulfonyl-4-oxo-1-[4-(trifluoromethoxy)phenyl]cinnoline-3-carboxylate] | 0 (0=0%) | 5 (5=81-100%) | 4 (4=61-80%) | 0 (0=0%) | 0 (0=0%) | 0 (0=0%) | 1 (1=10-20%) | 0 (0=0%) | 3 (3=41-60%) | 0 (0=0%) | 4 (4=61-80%) | 0 (0=0%)
7 | CCCCCCCCCOC(=O)c1nn(-c2ccc(OC(F)(F)F)cc2)c2cccc(S(C)(=O)=O)c2c1=O [Compound P82, nonyl 5-methylsulfonyl-4-oxo-1-[4-(trifluoromethoxy)phenyl]cinnoline-3-carboxylate] | 0 (0=0%) | 3 (3=41-60%) | 1 (1=10-20%) | 0 (0=0%) | 0 (0=0%) | 0 (0=0%) | 1 (1=10-20%) | 0 (0=0%) | 1 (1=10-20%) | 1 (1=10-20%) | 0 (0=0%) | 1 (1=10-20%)
8 | CCOC(=O)c1nn(-c2ccc(OC(F)(F)F)cc2)c2cc(C)cc(S(C)(=O)=O)c2c1=O [Compound P9, ethyl 7-methyl-5-methylsulfonyl-4-oxo-1-[4-(trifluoromethoxy)phenyl]cinnoline-3-carboxylate] | 1 (1=10-20%) | 4 (4=61-80%) | 4 (4=61-80%) | 1 (1=10-20%) | 1 (1=10-20%) | 1 (1=10-20%) | 1 (1=10-20%) | 1 (1=10-20%) | 4 (4=61-80%) | 1 (1=10-20%) | 3 (3=41-60%) | 1 (1=10-20%)
